Results from US20230095509A1, “NON-FIBRILLAR HEMOGLOBIN S OLIGOMERS AND METHODS TO IDENTIFY MODULATORS OF HEMOGLOBIN S POLYMERIZATION” (REGENTS OF THE UNIVERSITY OF MINNESOTA, priority 2021, published 2023).
Entries after “also recorded” stand apart in the source; their conditions may differ.

Columns and labels:
[1] = tested on: RBC from healthy donors (genotype HbAA); test: Microfluidic measurement of RBC oxygen saturation (Quantitative Absorption Cytometry, P50); assay type: cell-based, human; details: for P50 (hemoglobin oxygen binding affinity) relative to control: 500 μM, RBC from 4 healthy donors, 1 hr at 37C at 25% hematocrit, diluted to 1% hematocrit with drug, FIG. 10
Protocol: Measurement of hemoglobin oxygen saturation in RBC from 4 healthy donors (genotype HbAA). RBC at 25% hematocrit were incubated with 500 uM voxelotor, chlormezanone, gabazine, or DMSO (control) for 1 hr at 37C and then diluted to 1% hematocrit with drug.
Microfluidic Measurement of RBC Oxygen Saturation: The Quantitative Absorption Cytometry assay described previously (Di Caprio et al., 2019, Proc Natl Acad Sci USA 116, 25236-25242; Di Caprio et al., 2015, Proc Natl Acad Sci USA 112, 9984-9989), takes images of single red blood cells (RBC) under alternating 410 nm and 430 nm LEDs. Due to the unique absorption spectra of oxy and deoxy hemoglobin the transmitted light at 410 nm and 430 nm permits measurement of the single cell saturation can be calculated. The cells are perfused through a microfluidic device with oxygen control that permits measurement of the oxygen saturation of a population of RBC under defined oxygen tension. The polydimethysiloxane (PDMS) microfluidic device for this assay comprises two layers- a gas layer and a blood layer bonded to a glass coverslip. These two layers are separated by 100 μm of PDMS. The gas layer allows for precise control of oxygen tension that will diffuse to the blood layer; the blood layer contains a 30 mm diffusion section to allow red blood cells to reach steady state saturation and a 5 mm observation section to imaging RBCs.
To prepare RBC for measurement, blood samples were washed and resuspended in 10% w/v BSA in PBS, and 0.5 μL of 100 mM therapeutic in DMSO was added to the sample. The sample was then incubated on a shaker plate at 37° C. for one hour. After incubation samples were washed again and 10 μL packed red blood cells was added to a solution of 288 μL 25% Human Serum Albumin (HAS) solution (Gemini Bio).
In this assay, we prepared samples identically to the preparation for blood flow by incubating with drug at 25% hematocrit, and then we diluted the samples to 1% hematocrit with […] drug in the dilution buffer.

[2] = tested on: RBC from individuals with SCD (genotype HbSS); test: Microfluidic measurement of oxygen-dependent sickle blood flow; assay type: cell-based, human; details: for area under the velocity response curve (AUC) relative to control / deceleration rate of blood during deoxygenation: 500 μM, RBC at 25% hematocrit, 7 individuals with SCD, 1 hour at 37° C.; for deceleration rate of blood during deoxygenation: FIG. 8C
Protocol: We treated RBC suspensions at 25% hematocrit from 7 individuals with SCD (genotype HbSS) with 500 μM of our hit compounds or voxelotor (positive control) and quantified the flow in our microfluidic platform under well-defined oxygen tensions. (FIG. 8A) Representative image of blood flowing in microfluidic device with overlay of arrows representing the velocities of features between frames using the Lucas Kanade Tomasi algorithm. (FIG. 8B) Area under velocity response curve (AUC) comparison among treated samples compared to the vehicle control. (FIG. 8C) Deceleration rate comparison among treated samples compared to the vehicle control. All statistics were performed using a one-tailed Wilcoxon signed rank test, a=0.05, * p-value<0.05, **p-value<0.01
(FIG. 9A) Raw oxygen and velocity recordings during microfluidic experiment. Arrow indicates the change in the steady state mean velocity after introducing hypoxic conditions on the microfluidic chip. (FIG. 9B) The on-chip oxygen concentration is cycled seven times during the experiment between 21% 02 and hypoxia. Changes in the velocity during each cycle are normalized to the average velocity of the initial 21% cycle. (FIG. 9C) Shaded region represents the area under the curve (AUC) using the steady state mean velocity changes at each oxygen concentration. This measurement quantifies the overall oxygen response of the blood by accounting for both the magnitude of the steady state mean velocity drop as well as the persistence of oxygen-dependence at higher oxygen concentrations (FIG. 9D) Blood deceleration is measured by a segmented moving mean of the velocity response during the hypoxic transition using Matlab signal processing.
Blood Sample Collection and Preparation for Microfluidic Assays: Sickle cell patient blood samples were collected under protocols approved by the Institutional Review Boards at Children's Minnesota Hospital, the University of Minnesota Medical Center, and the University of Minnesota. Patient blood samples were collected into sodium citrate vacutainer tubes and stored at 4° C. The samples were prepared for the microfluidic experiments by washing twice with Dulbecco's phosphate buffered saline (DPBS) after centrifugation for 5 minutes at 400g. Packed red blood cells were then isolated by centrifuging the washed samples for 10 minutes at 400g and removing all remaining DPBS. The packed red blood cells were added to fresh DPBS to achieve a target hematocrit of 25%. Each compound of interest was added to the sample to reach a target concentration of 500 uM and incubated at 37° C. for 1 hour before being run on the microfluidic device. The compounds were dissolved in DMSO at a concentration of 100 mM and stored at −20° C. or −80° C. prior to use.
Microfluidic Setup and Experimental Protocol: A previously described (Valdez et al., 2019, APL Bioengineering 3, 046101; Geisness et al., 2022, Haematologica, 107(6); Hansen et al., 2020, Br J Haematol, (2019). Br J Haematol. 188(6): 985-993), polydimethylsiloxane (PDMS) microfluidic device replicating the geometry of the post-capillary venules was used to study blood rheological behavior. […] The microfluidic channels were primed by flowing a 2% bovine serum albumin (BSA) in DPBS solution through the device to passivate the PDMS surface. Blood was then added to the inlet port and flowed through the device under a constant driving pressure to achieve an initial velocity of […] (PCD-15PSIG, Alicat Scientific). At the bifurcation, blood is diverted to two […] square channels—a bypass channel and an experimental channel. Separate gas inlets supply oxygen to each of the two blood channels independently via diffusion from the overlaid gas layer. The bypass channel is supplied with air and maintained under normoxic conditions. […]

[3] = molecular target: deoxy-HbS oligomers (sickle hemoglobin, HbS) (Homo sapiens, UniProt P68871+P69905, E7V); test: Dynamic light scattering (DLS) of deoxy-HbS oligomers at sub-nucleating concentration; assay type: biochemical; details: HbS 25 μM; for size of deoxyHbS oligomers (DLS effective diameter) relative to control: hit compounds 100 μM, two hours at room temperature, degassed with argon, FIG. 4C
Protocol: (FIG. 4A) Pilot screening with LOPAC library. Compounds that reduced the FRET efficiency below 3SD (black line) were selected for further characterization. […] Fluorescently labeled HbS samples were plated in a 1536 plate and treated separately with DMSO or the three hit compounds, chlormezanone, gabazine, and phosphoramidon disodium, in a dose-dependent manner from 0.1 to 1000 μM for 2 hours at room temperature and then vacuum degassed for 10 minutes, and then donor lifetimes were measured using a fluorescence plate reader. […] HbS samples (25 μM) were incubated separately with hit compounds (100 μM) or DMSO only for two hours at room temperature and degassed with argon for five minutes, and then DLS measurement were taken at room temperature. […] Effect of hit compounds on polymerization of deoxyHbS in high potassium phosphate buffer. Curves represent growth of polymer as a function of time in the presence or absence of drug.

SMILES	P50 (hemoglobin oxygen binding affinity) relative to control [1]	area under the velocity response curve (AUC) relative to control [2]	deceleration rate of blood during deoxygenation [2]	size of deoxyHbS oligomers (DLS effective diameter) relative to control [3]	modification of hemoglobin ([1]; samples diluted to 1% hematocrit with drug in the dilution buffer)	modification of the hemoglobin ([2]; 500 μM at 25% hematocrit, assuming complete RBC partitioning and 30-36 g/dl intracellular hemoglobin)	mean oligomer size of deoxyHbS (DLS effective diameter) ([3]; degassed with argon 5 minutes, room temperature, FIG. 1A)
COc1ccc(-c2ccc(=N)n(CCCC(=O)O)n2)cc1 [gabazine]	neither chlormezanone nor gabazine significantly shifted P50; also recorded: no significant (p>0.05) change in P50	insignificant trend towards reduced AUC	significantly reduced the deceleration rate	significantly decreased the oligomer size			
CC(C)n1nccc1-c1ncccc1COc1cccc(O)c1C=O [voxelotor]	significantly (p<0.05) decreases P50; also recorded: large shift in P50; also recorded: significantly decreased the P50	significantly reduced the mean AUC	significantly reduced the deceleration rate		~100%	35-45%	dramatically reduced the mean oligomer size
CN1C(=O)CCS(=O)(=O)C1c1ccc(Cl)cc1 (centres unmarked) [chlormezanone]	neither chlormezanone nor gabazine significantly shifted P50; also recorded: no significant (p>0.05) change in P50	significantly reduced the mean AUC	significantly reduced the deceleration rate	significantly decreased the oligomer size			
